Measured values reported in patent US12648947B2, “Heterocyclic derivatives, pharmaceutical compositions and their use in the treatment, amelioration or prevention of fibrotic disease” (TOLREMO THERAPEUTICS AG, priority 2020, dated 2026).
Where two headings read alike, the source gives them in different places.

What was measured:
[1] = test system: TGF-β1 induced α-smooth muscle actin (αSMA) production by IPF diseased donor's lung fibroblast; assay: Fibroblast-to-Myofibroblast Transition (FMT) assay; format: cell-based; conditions: for IC50: Fibroblast, 72 h, 1.25 ng/ml TGF-β1, 72 h, read-out: IC50 αSMA, Log (converted); for Potential toxicity Log [M]: concentration with >25% cell loss (DAPI nuclei); for Max. Percentage Inhibition (PIN), [%]: αSMA
Procedure: Lung fibroblasts from 3 IPF donors (Pat1-3) were seeded for automated high-content/high-throughput microscopy. At day 2 cell culture medium was refreshed in the wells and fibroblast grown until day 5, at which point drug treatment was initiated.
Drug addition was done 1 h before stimuli addition (1.25 ng/ml TGF-β1). For trigger controls wells with fibroblasts were treated with medium (unstimulated control) or 1.25 ng/ml TGF-β1 (stimulated control). For assay controls fibroblasts were treated with 1.25 ng/ml TGF-β1+0.1% DMSO (unstimulated control) or 1.25 ng/ml TGF-β1+1 μM SB525334 (positive control for inhibition). Reference compound and clinically approved drug nintedanib was added as concentration response curve (CRC) with 8-points in a semi-Log dilution starting from 10 μM.
Wells were fixed with 4% paraformaldehyde and stained for α-smooth muscle actin (αSMA) expression using immunofluorescence and with DAPI to assess nuclei number per well. Image acquisition and high content analysis (HCA) of αSMA and DAPI was done on a high content microscope.
(§1) Analysis of αSMA/FN1: Images were segmented and quantificatied for αSMA/FN1 immunoreactivity by an HCA algorithm, with density x area (DxA) output. Data were normalized from raw αSMA/FN1 (DxA) to percentage inhibition (PIN) values, on a plate-to-plate basis
(§2) [formula] • μp is the average αSMA/FN1 value of the positive control (TGF-β1+1 μM SB525334) • μn is the average of αSMA/FN1 value of the vehicle control (TGF-β1+0.1% DMSO) • Xi is the compound αSMA/FN1 value
(§3) Analysis of % Remaining cells: DAPI fluorescence applied for HCA-based quantification of the number of imaged cells, on a plate-to-plate basis.
(§4) [formula] • μn is the average numbers of nuclei of the vehicle control (TGF-β1+0.1% DMSO) • Xi is the compound number of nuclei

[2] = test system: TGF-β1 induced Fibronectin 1 (FN1) production by IPF diseased donor's bronchial epithelial cells; assay: Epithelial-to-Mesenchymal Transition (EMT) assay; format: cell-based; design: Δ Percentage Inhibition (PIN), [%]: concentration or dose not given beside the values; conditions: for IC50: Epithelial cell, 72 h, 5.0 ng/ml TGF-β1, 72 h, read-out: IC50 FN1, Log (converted); for Δ Percentage Inhibition (PIN), [%]: FN1
Procedure: Bronchial epithelial cells (BEC) from 3 IPF donors (PatA-C) were seeded for automated high-content/high-throughput microscopy. At day 2 cell culture medium was refreshed in the wells and cells grown until day 5, at which drug treatment was initiated.
Drug addition was done 1 h before stimuli addition (5.0 ng/ml TGF-β1). For trigger controls wells with BEC were treated with medium (unstimulated control) or 5.0 ng/ml TGF-β1 (stimulated control). For assay controls fibroblasts were treated with 5.0 ng/ml TGF-β1+0.1% DMSO (unstimulated control) or 5.0 ng/ml TGF-β1+1 μM SB525334 (positive control for inhibition). The reference compound and clinically approved drug nintedanib was added as concentration response curve (CRC) with 8-points in a semi-Log dilution staring from 10 μM. […] Wells were fixed with 4% paraformaldehyde and stained for Fibronectin (FN1) expression using immunofluorescence and with DAPI to assess nuclei number per well. Image acquisition and high content analysis (HCA) of FN1 and DAPI was done on a high content microscope.
as §1, §2, §3, §4

HCC827 lung cancer cells = assay: Fibrotic gene expression analysis by RNA sequencing; format: cell-based; conditions: 1 μM, 24 h vs DMSO
Procedure: (§5) 250000 HCC827 (ATCC; CRL 2868) cells/well or 200000 NCI-H1975 (ATCC; CRL 5908) cells/well were seeded in 6-well dishes (Greiner Bio-One, 7657160) the day before drug treatment in RPMI medium containing 10% FCS and 2 mM L-Glutamine. […] Subsequently cells were washed 3 times with 2 ml PBS and lysed in 300 μl lysis buffer (RA1+1% TCEP [Sigma 646547]). RNA is extracted according to Macherey-Nagel NucleoSpin 8 RNA Kit protocol for vacuum (740698.5) for RNA extraction and RNA is eluted in H2O. RNA Library preparation and sequqnening was done externally. In short, RNA sequencing libraries were generated using TruSeq RNA Sample Prep Kit v2 following manufacturer's recommendations and index codes were added to attribute sequences to each sample. Samples were sequenced using an Illumnia platform, with paired-end reads. Illumina SBS technology utilizes a proprietary reversible terminator-based method that detects single bases as they are incorporated into DNA template strands. The original data obtained from the high throughput sequencing platforms were transformed to sequenced reads by base calling. Raw data are recorded in a FASTQ file which contains sequenced reads and corresponding sequencing quality information and were further processed to obtain transcripts per million values (TPM) for variable genes.

[3] = test system: NCI-H1975 lung cancer cells; assay: as above; format: cell-based; conditions: 1 μM, 24 h vs DMSO
Procedure: as §5

CBP bromodomain = biological target: T1, CBP bromodomain (Homo sapiens, UniProt Q92793); assay: CBP bromodomain binding assay (TR-FRET); conditions: 1 hour incubation at room temperature
T1 construct: purchased Cayman chemicals 600850
Procedure: Compounds solutions of 10 mM in DMSO were pre-diluted in DSMO to 25× stock solutions in DMSO. These were then diluted down to 4× in Assay buffer. A dilution series in Assay buffer was performed keeping the DMSO concentration stable. 5 μl compound in assay buffer was transferred into the assay plate (provided by assay kit) and the TR-FRET assay Cayman chemicals; 600850) was performed using the manufacture's instructions. After 1 hour incubation at room temperature in the darks, assay plates were read in a Tecan M1000 plate reader using the TR-FRET mode (top read; excitation 340 nm bandwidth 20 nM; emission 620 nm bandwidth 7 nM; gain optimal determined for the first well, number of flashes: 5; flash frequency 100 Hz; integration time: 500 μs, lag time: 100 μs, room temperature). The TR-FRET ratio was calculated by dividing 670 nm emission by 620 nm emission. […] Values were log transformed and non-linear regression with variable slope (4 parameters) was used to fit values to a dose-response curve to evaluate EC50 values (see table 5 below).

T1 sequence (Q92793 1085-1192 limits assumed): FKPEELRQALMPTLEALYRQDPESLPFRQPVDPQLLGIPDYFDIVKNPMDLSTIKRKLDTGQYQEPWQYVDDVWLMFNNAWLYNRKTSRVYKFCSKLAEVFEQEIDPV

COc1cncc(-c2cc(Nc3cccc(F)c3)nc([C@@H]3CC[C@H](C)N(C(C)=O)C3)n2)c1 [Compound 00004]
IC50 ([1]; Pat1 lung fibroblast donor): 1260 nM | IC50 ([1]; Pat2 lung fibroblast donor): 2510 nM | IC50 ([1]; Pat3 lung fibroblast donor): 2000 nM | inhibition of TGF-β1-mediated αSMA expression ([1]; all 3 IPF donors' lung fibroblast): full concentration-dependent inhibition | Potential toxicity Log [M] ([1]; Pat1): >−5.2 Log [M] | Potential toxicity Log [M] ([1]; Pat2): >−5.2 Log [M] | Potential toxicity Log [M] ([1]; Pat3): >−5.2 Log [M] | Max. Percentage Inhibition (PIN), [%] ([1]; Pat1 lung fibroblast donor): 90.3% | Max. Percentage Inhibition (PIN), [%] ([1]; Pat2 lung fibroblast donor): 127.1% | Max. Percentage Inhibition (PIN), [%] ([1]; Pat3 lung fibroblast donor): 105.1% | inhibition of TGF-β1-mediated FN1 expression ([2]; BEC from 2 IPF donors): full concentration-dependent inhibition | inhibition of TGF-β1-mediated FN1 expression ([2]; BEC from one IPF donor, partial = ΔPIN <75): partial | modulation of the number of nuclei ([2]; BEC, indicative of absence of potential cytotoxic side-effects): No modulation | IC50 ([2]; PatA BEC donor): 5010 nM | IC50 ([2]; PatB BEC donor): 1000 nM | IC50 ([2]; PatC BEC donor): 2000 nM | Δ Percentage Inhibition (PIN), [%] ([2]; PatA BEC donor): 62.5% | Δ Percentage Inhibition (PIN), [%] ([2]; PatB BEC donor): 84.9% | Δ Percentage Inhibition (PIN), [%] ([2]; PatC BEC donor): 116.3% | expression of genes up-regulated during fibrotic disease (MMP, FN1, COL1A1), mRNA abundance (TPM) (HCC827 lung cancer cells): reduces expression of genes | expression of genes up-regulated during fibrotic disease (MMP, FN1, COL1A1), mRNA abundance (TPM) [3]: reduces expression of genes

CC(=O)N1C[C@H](c2nc(Nc3cc(F)c4cc[nH]c4c3)cc(-c3cccnc3)n2)CC[C@@H]1C [Compound 00040]
EC50 (CBP bromodomain): < 200 nM

CC(=O)N1C[C@H](c2nc(Nc3ccccc3)cc(-c3cncnc3)n2)CC[C@@H]1C [Compound 00062]
EC50 (CBP bromodomain): 200 to 1000 nM

CC(=O)N1C[C@H](c2nc(Nc3ccccc3)cc(-c3cncc4[nH]ccc34)n2)CC[C@@H]1C [Compound 00063]
EC50 (CBP bromodomain): < 200 nM

CC(=O)N1C[C@H](c2nc(Nc3cncc(C)c3)cc(-c3cncc4[nH]ccc34)n2)CC[C@@H]1C [Compound 00075]
EC50 (CBP bromodomain): < 200 nM

CC(=O)N1C[C@H](c2nc(Nc3ccncc3)cc(-c3cccnc3)n2)CC[C@@H]1C [Compound 00077]
EC50 (CBP bromodomain): 200 to 1000 nM

COC(=O)c1ccc2c(c1)NC(=O)/C2=C(\Nc1ccc(N(C)C(=O)CN2CCN(C)CC2)cc1)c1ccccc1 [Nintedanib, reference compound]
IC50 ([1]; Pat1 lung fibroblast donor): 631 nM | IC50 ([1]; Pat2 lung fibroblast donor): 398 nM | IC50 ([1]; Pat3 lung fibroblast donor): 200 nM | Potential toxicity Log [M] ([1]; Pat1): >−5.5 Log [M] | Potential toxicity Log [M] ([1]; Pat2): >−7.0 Log [M] | Potential toxicity Log [M] ([1]; Pat3): >−6.0 Log [M] | Max. Percentage Inhibition (PIN), [%] ([1]; Pat1 lung fibroblast donor): 109.3% | Max. Percentage Inhibition (PIN), [%] ([1]; Pat2 lung fibroblast donor): 101% | Max. Percentage Inhibition (PIN), [%] ([1]; Pat3 lung fibroblast donor): 98.4% | IC50 ([2]; PatA BEC donor): 10000 nM | IC50 ([2]; PatC BEC donor): 63.1 nM | Δ Percentage Inhibition (PIN), [%] ([2]; PatA BEC donor): 45.9% | Δ Percentage Inhibition (PIN), [%] ([2]; PatB BEC donor): 81.7% | Δ Percentage Inhibition (PIN), [%] ([2]; PatC BEC donor): 72.1%
